Results from US11931339B2, “Compositions and methods for treating tissue injury” (CASE WESTERN RESERVE UNIVERSITY, priority 2018, dated 2024).
One block for each compound: values may come before it.

Legend:
[1] = biological target: T1, recombinant PKM2-C423/424A (Homo sapiens, UniProt P14618, C423A/C424A); experiment: Activity of recombinant PKM2-C423/424A after SNO-CoA treatment; assay type: biochemical; settings: in vitro, 200-300 μM SNO-CoA for 10 min; FIG. 3f
T1 construct: 6xHis (C); made in house; host or cells: E. coli BL21-CodonPlus
Excerpt: The mammalian cell expression plasmid pCMV-PKM2 was obtained from Origene. Mammalian cell expression plasmid pcDNA-SCoR was constructed by PCR-cloning. pCMV-PKM2 cysteine mutants were generated by QuikChange II Site-Directed Mutagenesis Kit (Agilent). For purification of recombinant PKM2, cDNA encoding PKM2-WT or PKM2-C423A/424A were cloned into pET21b (Novagen) to introduce a C-terminal 6×His tag on the expressed protein. The recombinant PKM2 proteins were purified from BL21-CodonPlus Competent E. coli Cells (Agilent). Overnight E. coli cultures were sub-cultured into 1 L of LB medium at 5%. At OD600 of 0.5, cultures were induced with […] IPTG and grown for a further 4 hr at 28° C. Cultures were centrifuged at 4000 g for 10 min to harvest the cells. Cell pellets from 1 L cultures were lysed in 10 mL of 1×PBS buffer containing 1 mM PMSF and protease-inhibitor cocktail by sonication. After centrifugation at 14500 g for 20 min, the supernatant was collected. […]
PKM activity was measured based on generation of pyruvate, which was oxidized by pyruvate oxidase to produce color (k=570 nm). […] After 10 ng PKM2-FBP complex was treated with 200-300 μM SNO-CoA for 10 min at room temperature, the activity of PKM2 was measured. […] Extracts were clarified by centrifugation (20,000 g, 4° C., 20 min, ×2), and protein concentration was determined by bicinchoninic acid assay. […]

recombinant PKM1 = recombinant PKM1 (Homo sapiens, UniProt P14618); experiment: Activity of recombinant PKM1 after SNO-CoA treatment; assay type: biochemical; settings: FIG. 8
tetrameric PKM2-WT = biological target: T2, tetrameric PKM2-WT (Homo sapiens, UniProt P14618); experiment: PKM2 dimer and tetramer formation in vitro, PKM2-WT; assay type: biochemical; settings: purified proteins, 200-300 μM SNO-CoA for 10 min; FIG. 3g
T2 construct: 6xHis (C); made in house; host or cells: E. coli BL21-CodonPlus
Method: Assay of PKM2 dimer and tetramer in vitro follows previous descriptions. In brief, after 40 ng PKM2-FBP complex was treated with 200-300 μM SNO-CoA for 10 min at room temperature, 5 μl fresh glutaraldehyde (50%) was added to a reaction mixture containing 100 mM HEPES (pH 7.5) for 5 min at 37° C. The cross-linking reaction was terminated by addition of 5 μl 1M Tris-HCL (PH 8.0). Assay of PKM2 dimer and tetramer in situ was carried out as described previously. DSS (disuccinimidyl suberate; Thermo Scientific) (final 500 μM) was added to cells for 30 min at room temperature to cross-link proteins. Cells were lysed in RIPA Buffer and protein concentration was determined by bicinchoninic acid assay. Equal amounts of protein were separated by 4-15% Criterion™ Precast Midi Protein Gel and monomer, dimer and tetramer forms of PKM2 were detected with PKM2 antibody.

recombinant PKLR = recombinant PKLR (Homo sapiens, UniProt P30613); experiment: Activity of recombinant PKLR after SNO-CoA treatment; assay type: biochemical; settings: FIG. 8
recombinant PKM2 = biological target: T3, recombinant PKM2 (Homo sapiens, UniProt P14618); experiment: PKM activity of recombinant PKM2 after SNO-CoA treatment; assay type: biochemical; settings: PKM2-FBP complex, 200-300 μM SNO-CoA for 10 min at room temperature; FIG. 3d
T3 construct: 6xHis (C); made in house; host or cells: E. coli BL21-CodonPlus
Method: PKM activity was measured based on generation of pyruvate, which was oxidized by pyruvate oxidase to produce color (k=570 nm). To measure PKM2 activity in vitro, 250 ng recombinant PKM2-WT and PKM2-C423A/424A proteins were pre-incubated with substrate 2 μl fructose-1,6-bisphosphate (FBP)(250 μM) in 2 ml dialysis buffer [20 mM Tris-HCL (pH 7.9), 20% (v/v) glycerol, 0.1 M KCL, 0.2 mM EDTA], followed by dialysis to remove the free FBP in 2 L dialysis buffer. After 10 ng PKM2-FBP complex was treated with 200-300 μM SNO-CoA for 10 min at room temperature, the activity of PKM2 was measured. To measure PKM2 activity in kidney, kidneys were mechanically homogenized in lysis buffer [50 mM phosphate buffer, pH 7.0, 150 mM NaCl, 0.1 mM EDTA, 0.1 mM DTPA, 1 mM PMSF, and protease inhibitor mixture (Roche)]. Extracts were clarified by centrifugation (20,000 g, 4° C., 20 min, ×2), and protein concentration was determined by bicinchoninic acid assay. 10 μl (0.1 μg/μl) lysate was used to measure PKM2 activity. Assay of PKM2 activity was followed the protocol of Pyruvate Kinase Activity Colorimetric/Fluorometric Assay Kit from Biovison In.

SCoR−/− mice = experiment: Ascorbate-supplemented chow in SCoR−/− mice: ascorbate levels and I/R-induced AKI; assay type: in vivo; settings: chow with 1% ascorbate for six weeks, FIGS. 7b-c
Method: AKI surgery was carried out as described herein. Mice of similar age (9-11 weeks) and body weight (male: 25-28 g; female: 22-25 g) were used for surgery. The mice were anesthetized with isoflurane (1-3%) in oxygen and then anesthesia was maintained with isoflurane (0.75-2.0%) and adjusted as needed. The fur in the surgical area was removed with clippers and the skin sterilized with 3 times alternating washes of betadine […] and alcohol. The mouse was placed on a thermostatic station during surgery. The skin and muscle were cut open along the back to expose both right and left kidneys. Gentle blunt dissection was performed through muscular layers to reveal the kidney and a Q-tip was used to mobilize and exteriorize the kidney. A 5-0 silk suture was used to clamp the pedicle to block the blood flow to the kidney to induce renal ischemia for 23 min in male mice or 50 min in female mice, then the sutures released to allow reperfusion. The identical steps were performed on the contra-lateral side. A silk suture was used to close the muscle layer of the incision followed by the closure of the skin wound with vicryl. […] Seram creatinine and BUN were determined after 24 hrs of reperfusion upon removal of the kidney (when larger volumes of blood can be collected). Seram creatinine and BUN were measured at University Hospital's Clinical Laboratories.

[2] = tested on: Myc-PKM2-WT and Myc-PKM2-C423/424A HEK cells; experiment: ADP/ATP ratio in PKM2-expressing HEK cells under NO treatment; assay type: cell-based; settings: HEK cells under NO treatment (DETANO 500 μM); FIG. 12
Method: (§1) HEK cell transfection was described herein. siRNA-mediated protein depletion was used in HEK cells. Two custom PKM2 siRNAs that target the 3′ UTR of PKM2 were obtained from Dharmacon. siRNA oligonucleotides (60 pmol/10 cm plate) were transfected into HEK cells using Lipofectamine RNAiMAX (Invitrogen) according to the manufacturer's protocol. After 24 hours, 5 μg pCMV-control, pCMV-PKM2-WT or pCMV-PKM2-C423A/424A were co-transfected with siRNA oligonucleotides (60 pmol/10 cm plate) into HEK cells using Lipofectamine 2000. After 24 hrs, cells were treated with 500 μM DETA-NO for 20 hr. Cells were then collected for assay.
(§2) The amount of pyruvate was measured using Pyruvate Assay Kit (Sigma). Kidneys harvested from SCoR^+/+, SCoR^−/−, PKM2^+/+ or PKM2^−/− mice (sham operation or AKI) were mechanically homogenized in Pyruvate Assay Buffer (1 mg/5 μl buffer). After extracts were clarified by centrifugation (20,000 g, 4° C., 20 min, ×2), supernatant was used for assay. GHB in the serum of SCoR^+/+ and SCoR^−/− mice was measured following the GHB enzymatic assay kit from BUHLMANN. […] The amount of PEP, 6PG, ATP, ADP and serine were respectively measured using PEP Colorimetric/Fluorometric Assay Kit (Sigma), 6 phosphogluconate Assay kit (abeam), ATP Colorimetric/Fluorometric Assay Kit (Sigma), ADP Colorimetric/Fluorometric Assay Kit (Sigma) and DL-Serine Assay kit (Fluorometric) (Biovision).

[3] = tested on: Myc-PKM2-WT and Myc-PKM2-C423/424A expressing HEK cells; experiment: PEP accumulation in PKM2-expressing HEK cells after NO treatment; assay type: cell-based; settings: HEK cells with endogenous PKM2 knocked down; 500 μM DETANO; FIG. 3h
Method: as §1, §2

[4] = biological target: T4, PKM2-C423/424A in HEK cells (Homo sapiens, UniProt P14618, C423A/C424A); experiment: Activity of Myc-PKM2-C423/424A after NO (DETA-NO) treatment in HEK cells; assay type: cell-based; settings: 500 μM DETA-NO for 20 hr; FIG. 11b
T4 construct: host or cells: HEK cells (endogenous PKM2 depleted by siRNA against the 3' UTR)
Method: as §1
PKM activity was measured based on generation of pyruvate, which was oxidized by pyruvate oxidase to produce color (k=570 nm). To measure PKM2 activity in vitro, 250 ng recombinant PKM2-WT and PKM2-C423A/424A proteins were pre-incubated with substrate 2 μl fructose-1,6-bisphosphate (FBP)(250 μM) in 2 ml dialysis buffer [20 mM Tris-HCL (pH 7.9), 20% (v/v) glycerol, 0.1 M KCL, 0.2 mM EDTA], followed by dialysis to remove the free FBP in 2 L dialysis buffer. After 10 ng PKM2-FBP complex was treated with 200-300 μM SNO-CoA for 10 min at room temperature, the activity of PKM2 was measured. […] Extracts were clarified by centrifugation (20,000 g, 4° C., 20 min, ×2), and protein concentration was determined by bicinchoninic acid assay. […]

[5] = tested on: Myc-PKM2-WT and Myc-PKM2-C423/424A expressing HEK cells; experiment: 6-phosphogluconate accumulation in PKM2-expressing HEK cells after NO treatment; assay type: cell-based; settings: DETANO 500 μM, FIG. 11d
Method: as §1, §2

T1 sequence (P14618 2-531 C423A/C424A): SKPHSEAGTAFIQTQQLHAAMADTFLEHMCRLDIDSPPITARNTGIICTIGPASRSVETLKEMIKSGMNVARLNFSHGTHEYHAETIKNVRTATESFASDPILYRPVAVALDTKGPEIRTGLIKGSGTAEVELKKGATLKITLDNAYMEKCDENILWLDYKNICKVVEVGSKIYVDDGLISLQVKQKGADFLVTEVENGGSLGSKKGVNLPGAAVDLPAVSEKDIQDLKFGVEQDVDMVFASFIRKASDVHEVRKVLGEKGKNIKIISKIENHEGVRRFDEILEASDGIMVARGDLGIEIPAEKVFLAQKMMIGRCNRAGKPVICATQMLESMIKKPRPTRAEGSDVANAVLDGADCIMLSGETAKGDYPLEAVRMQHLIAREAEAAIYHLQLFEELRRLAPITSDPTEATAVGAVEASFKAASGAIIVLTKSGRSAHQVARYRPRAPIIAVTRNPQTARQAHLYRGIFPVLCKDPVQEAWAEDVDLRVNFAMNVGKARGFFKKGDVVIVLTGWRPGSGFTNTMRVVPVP
T4 sequence (P14618 2-531 C423A/C424A): as above
Sequence of recombinant PKLR (P30613 whole entry, species assumed): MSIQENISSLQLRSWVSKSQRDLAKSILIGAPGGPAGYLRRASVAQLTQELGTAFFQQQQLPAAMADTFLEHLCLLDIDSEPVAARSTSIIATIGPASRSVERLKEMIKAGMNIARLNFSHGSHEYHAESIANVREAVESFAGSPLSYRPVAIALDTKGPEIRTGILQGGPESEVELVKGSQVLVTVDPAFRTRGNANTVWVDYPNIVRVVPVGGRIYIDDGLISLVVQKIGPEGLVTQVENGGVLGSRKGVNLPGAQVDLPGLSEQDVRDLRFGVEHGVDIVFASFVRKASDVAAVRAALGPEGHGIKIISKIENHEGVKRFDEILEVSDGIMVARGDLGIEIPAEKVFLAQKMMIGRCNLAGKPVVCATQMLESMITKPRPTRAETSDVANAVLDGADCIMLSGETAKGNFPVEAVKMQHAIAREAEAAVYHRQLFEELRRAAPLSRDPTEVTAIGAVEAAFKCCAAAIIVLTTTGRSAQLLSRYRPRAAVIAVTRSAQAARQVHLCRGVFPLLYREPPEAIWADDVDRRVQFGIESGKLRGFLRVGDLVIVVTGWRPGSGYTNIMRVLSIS
T3 sequence (P14618 whole entry, species assumed): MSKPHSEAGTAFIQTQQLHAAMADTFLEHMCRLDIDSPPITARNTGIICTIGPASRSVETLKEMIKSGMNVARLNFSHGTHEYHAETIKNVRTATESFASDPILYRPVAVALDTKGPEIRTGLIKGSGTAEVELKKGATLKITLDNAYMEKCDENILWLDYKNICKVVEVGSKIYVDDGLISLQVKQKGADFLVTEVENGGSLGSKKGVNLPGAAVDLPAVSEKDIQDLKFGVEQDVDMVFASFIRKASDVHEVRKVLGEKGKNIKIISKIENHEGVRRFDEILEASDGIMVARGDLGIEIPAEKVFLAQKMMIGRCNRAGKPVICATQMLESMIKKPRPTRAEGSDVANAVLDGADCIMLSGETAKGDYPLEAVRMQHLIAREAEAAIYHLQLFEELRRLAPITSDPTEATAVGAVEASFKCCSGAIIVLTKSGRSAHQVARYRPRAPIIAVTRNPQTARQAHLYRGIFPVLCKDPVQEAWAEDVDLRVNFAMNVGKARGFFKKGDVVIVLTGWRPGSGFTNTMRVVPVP
T2 sequence (P14618 whole entry, species assumed): as above
Sequence of recombinant PKM1 (P14618 1-531 isoform P14618-2, species assumed): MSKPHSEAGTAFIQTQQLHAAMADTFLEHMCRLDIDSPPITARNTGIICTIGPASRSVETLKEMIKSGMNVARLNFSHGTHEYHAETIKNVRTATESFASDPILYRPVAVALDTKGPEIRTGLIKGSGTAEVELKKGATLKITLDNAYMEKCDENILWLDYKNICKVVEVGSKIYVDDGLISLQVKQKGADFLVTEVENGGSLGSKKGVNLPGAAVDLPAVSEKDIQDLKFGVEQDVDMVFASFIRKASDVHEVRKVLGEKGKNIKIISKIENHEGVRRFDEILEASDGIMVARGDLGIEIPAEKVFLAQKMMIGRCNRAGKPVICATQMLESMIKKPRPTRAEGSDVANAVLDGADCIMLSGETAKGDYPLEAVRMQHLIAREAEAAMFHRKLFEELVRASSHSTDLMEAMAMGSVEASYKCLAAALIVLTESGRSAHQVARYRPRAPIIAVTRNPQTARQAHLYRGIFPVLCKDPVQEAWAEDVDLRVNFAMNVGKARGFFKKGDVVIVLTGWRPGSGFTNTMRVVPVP

- activity of PKM2-C423/424A after SNO-CoA treatment [1]: cannot be inhibited
- activity of recombinant PKM2 after SNO-CoA treatment (recombinant PKM2): directly inhibited
Compound: CC(C)(COP(=O)(O)OP(=O)(O)OC[C@H]1O[C@@H](n2cnc3c(N)ncnc32)[C@H](O)[C@@H]1OP(=O)(O)O)[C@@H](O)C(=O)NCCC(=O)NCCSN=O [SNO-CoA, S-nitroso-CoA]
- activity of recombinant PKM1 after SNO-CoA treatment (recombinant PKM1): not other PK isoforms (PKM1 or PKLR), was directly inhibited
- formation of tetrameric PKM2-WT (tetrameric PKM2-WT): inhibited formation of tetrameric PKM2-WT
- activity of recombinant PKLR after SNO-CoA treatment (recombinant PKLR): not other PK isoforms (PKM1 or PKLR), was directly inhibited

Compound: O=C1O[C@H]([C@@H](O)CO)C(O)=C1O [ascorbate, ascorbic acid]
- AKI phenotype (serum creatinine and BUN) (SCoR−/− mice): no effect on the AKI phenotype

- activity of PKM2-C423/424A in HEK cells [4]: cannot be inhibited
Compound: NCCN(CCN)/[N+]([O-])=N/O [DETA-NO]
- ADP/ATP ratio between Myc-PKM2-WT and Myc-PKM2-C423/424A cells [2]: no different
- accumulation of PEP in Myc-PKM2-C423/424A cells [3]: not Myc-PKM2-C423/424A cells
- accumulation of PEP in Myc-PKM2-WT cells [3]: promoted the accumulation of PEP
- accumulation of 6-phosphogluconate in Myc-PKM2-WT vs. Myc-PKM2-C423/424A cells [5]: promotes accumulation of 6-phosphogluconate
